Earlier results as cited in PMC3792011 (Clinical Pharmacology : Advances and Applications, 2013).
“And” between values parts separate entries of the source, which are not always exact repeats. Equal values may be shown once.

Tests used:
[1] = treatment guidelines
[2] = steady state; bibliographic data

For `COC(=O)N[C@H](C(=O)N[C@@H](Cc1ccccc1)[C@@H](O)CN(Cc1ccc(-c2ccccn2)cc1)NC(=O)[C@@H](NC(=O)OC)C(C)(C)C)C(C)(C)C` [ATZ, Atazanavir], the “Recommended upper limit of plasma concentration (risk of hyperbilirubinemia)” value [1] is given as less than 1.1 µmol/L, the “AUC, geometric mean (CV %)” value [2] is given as 65.4 (0.1) μmol · h/L and the “AUC, mean (SD)” value [2] is given as 76.4 (50.1) μmol · h/L. For the same compound, the “Cmax_SS_ATZ, geometric mean (CV %)” value [2] was 6.2 (0.1) μmol/L, the “Cmax_SS_ATZ, mean (SD)” value [2] was 7.4 (4.3) μmol/L and the “Cmin_SS_ATZ, geometric mean (CV %)” value [2] was 0.9 μmol/L and 0.9 (0.1) μmol/L. The “Cmin_SS_ATZ, mean (SD)” value [2] was 1.2 (1.2) μmol/L and the “T-half, mean (SD)” value [2] was 8.6 (2.3) h.
